pEC50: −log10 of the molar value.

The target of this assay is dopamine D1 receptor (Cyprinus carpio). Nature of the assay: Concentration required to inhibit 50% dopamine receptor D1 activity using cell free homogenate of carp retina.
As for `CCCCCCC1Cc2c(ccc(O)c2O)[C@H](CN)O1` (stereo partly specified), the negative logarithm of the EC50 (pEC50) was 7.85.

As to `NC[C@@H]1OC2(CCCCC2)Cc2c1ccc(O)c2O`, the pEC50 was 7.16.

On to `NC[C@@H]1OC(c2ccc(I)cc2)Cc2c1ccc(O)c2O` (stereo partly specified), for which the negative logarithm of the EC50 (pEC50) is 8.70.

In turn, `CC[C@H]1Cc2c(ccc(O)c2O)[C@H](CN)O1` had a negative logarithm of the EC50 (pEC50) of 6.63.

On to `NC[C@@H]1OC(COc2ccccc2)Cc2c1ccc(O)c2O` (stereo partly specified), for which the negative logarithm of the EC50 (pEC50) is 7.62.

In the case of `NC[C@@H]1OC(CCc2ccccc2)Cc2c1ccc(O)c2O` (stereo partly specified), the negative-log EC50 (pEC50) was 8.28.

With `CC[C@@H]1Cc2c(ccc(O)c2O)[C@H](CN)O1`, the pEC50 is 6.85. This pEC50 lies 1.43 log units lower than the previous one.

In the case of `COc1cccc(C2Cc3c(ccc(O)c3O)[C@H](CN)O2)c1` (stereo partly specified), the negative-log EC50 (pEC50) is 8.19. Against the preceding compound, the pEC50 is 1.34 log units higher.

`NC[C@@H]1OC(c2ccc(Br)cc2)Cc2c1ccc(O)c2O` (stereo partly specified) showed a pEC50 of 9.00.

Take `NC[C@@H]1OC(Cc2ccccc2)Cc2c1ccc(O)c2O` (stereo partly specified): the pEC50 was 7.47.

In turn, `Oc1ccc2c(c1O)CC(C1CCCCC1)O[C@H]2CNC1CC1` (stereo partly specified) showed a pEC50 of 6.91.

For the compound `OCCCNC[C@@H]1OC(C2CCCCC2)Cc2c1ccc(O)c2O` (stereo partly specified), the pEC50 was 5.76.

Take `NC[C@@H]1OC(CC2CCCC2)Cc2c1ccc(O)c2O` (stereo partly specified): the pEC50 was 8.17.

Regarding `CCCCC1Cc2c(ccc(O)c2O)[C@H](CN)O1` (stereo partly specified), the negative-log EC50 (pEC50) is 8.20.

For `NC[C@@H]1OC(COCc2ccccc2)Cc2c1ccc(O)c2O` (stereo partly specified), the negative-log EC50 (pEC50) is 7.05. Compared with the last compound, the pEC50 is 1.15 log units lower.

In turn, `C#CCNC[C@@H]1OC(C2CCCCC2)Cc2c1ccc(O)c2O` (stereo partly specified) gave a pEC50 of 7.89.

The term pEC50 denotes the EC50 on a negative log10 scale, so that one unit is a factor of ten. Lower therefore signals a high EC50.

The record behind these values is BindingDB's records for doi:10.1021/jm00112a034 (Abbott Laboratories, 1991).
